According to patent US20240140991A1, “ANTIBIOTIC NATURAL PRODUCT ANALOGUES” (THE QUEEN'S UNIVERSITY OF BELFAST, priority 2021, published 2024):
In brackets after ≈: the same amount, converted by molar mass. Positions of bridges follow the written chain, without caps; N, C: chain ends. Non-standard residues stand in square brackets, D forms with d. Residues, ends and D or L forms follow the SMILES beside them. ξ: configuration not given here. *: point of attachment. Palmitoyl = CCCCCCCCCCCCCCCC(=O)*; Hexanoyl(4ξ-Me) = CCC(C)CCC(=O)*; Myristoyl = CCCCCCCCCCCCCC(=O)*; Lauroyl = CCCCCCCCCCCC(=O)*; Decanoyl = CCCCCCCCCC(=O)*; dOrn = NCCC[C@@H](N)C(=O)O; Octanoyl = CCCCCCCC(=O)*; Orn = NCCC[C@H](N)C(=O)O; Hexanoyl = CCCCCC(=O)*; Butyryl = CCCC(=O)*

Tests used:
K. pneumoniae ATCC 11228 = assay type: cell-based, Klebsiella pneumoniae; conditions: ATCC 11228
Protocol: (§1) Minimum inhibitory concentration (MIC) was determined by broth microdilution according to CLSI guidelines. Blood agar plates were inoculated with glycerol stocks of Escherichia coli ATCC 25922, E. coli ATCC 25922 MCR-1, E. coli MCR-1 (clinical isolate from Utrecht Medical Center, NL), E. coli EQAS MCR-2 (clinical isolate from Wageningen University and Research, NL), Kiebsielia pneumoniae ATCC 11228, K. pneumoniae ATCC 13883, K. pneumonia 2048 (clinical isolate from Vrije Universiteit Amsterdam Medical Center, NL), K. pneumonia JS-123 (clinical isolate from Utrecht Medical Center, NL), Acinetobacter baumannii ATCC 17961, A. baumannil ATCC 17978, A. baumannii 2018-006 (clinical isolate from Rijksinstituut voor Volksgezondheid en Milieu, NL), A. baumannii MDR (clinical isolate from Vrije Universiteit Amsterdam Medical Center, NL), Pseudomonas aeruginosa ATCC 27853, P. aeruginosa PAO1, P. aeruginosa NRZ-03961 (Reference strain from Das Nationale Referenzzentrum für gramnegative Krankenhauserreger, DE), P. aeruginosa M-120 (clinical isolate from Leiden University Medical Center, NL) and Staphylococcus aureus USA300 (clinical isolate from Texas Children's Hospitalm, USA). E. coli 25922 MCR1 was grown on LB agar supplemented with kanamycin. The inoculated agar plates were then incubated for 16 hours at 37° C. Individually grown colonies were subsequently used to inoculate 3 mL aliquots of TSB that were then incubated at 37° C. with shaking at 220 rpm. In parallel, the compounds to be assessed were serially diluted with Mueller-Hinton broth (MHB) in polypropylene 96-well plates (50 μL in each well). Once the OD600 of the bacterial suspensions reached 0.5, the bacteria were diluted with MHB (final concentration 2×10^5 CFU mL^−1) and added to the microplates containing the test compounds (50 μL to each well, final volume: 100 μL). The well-plates were sealed with an adhesive membrane and after 16 hours of incubation at 37° C. with shaking at 220 rpm the wells were visually inspected for bacterial growth. MIC values were defined as the lowest concentration of the compound that prevented visible growth of bacteria.

A. baumannii ATCC 17978 = assay type: cell-based, Acinetobacter baumannii; conditions: ATCC 17978
Protocol: as §1

[1] = system: Escherichia coli ATCC 25922; assay type: cell-based; conditions: ATCC 25922
How it was run: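 Broth microdilution in MHB per CLSI; inoculum 2×10^5 CFU mL^−1 from log-phase TSB cultures at OD600 0.5. Plates incubated 16 hours at 37° C with shaking at 220 rpm. MIC is the lowest concentration preventing visible growth.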

P. aeruginosa PAO1 = assay type: cell-based, Pseudomonas aeruginosa; conditions: PAO1
Protocol: as §1

E. coli = assay type: cell-based
Protocol: as §1
MIC values were determined for the lipid analogues of brevicidine.
MIC values were determined for the position 9 analogues of linear brevicidine.

Row | Structure (SMILES) | Minimum inhibitory concentration (MIC) (K. pneumoniae ATCC 11228) | Minimum inhibitory concentration (MIC) (A. baumannii ATCC 17978) | Minimum inhibitory concentration (MIC) [1] | Minimum inhibitory concentration (MIC) (P. aeruginosa PAO1) | E. coli MIC (E. coli)
1 | CC[C@H](C)[C@@H]1NC(=O)[C@@H](NC(=O)[C@H](Cc2c[nH]c3ccccc23)NC(=O)[C@@H](CCCN)NC(=O)CNC(=O)[C@H](CCCN)NC(=O)[C@@H](CCCN)NC(=O)[C@@H](Cc2c[nH]c3ccccc23)NC(=O)[C@@H](Cc2ccc(O)cc2)NC(=O)[C@@H](CO)NC(C)=O)[C@@H](C)OC(=O)CNC(=O)CNC(=O)[C@H](CC(N)=O)NC1=O [Compound C2] (Ac-[dS][dY][dW][dOrn][Orn]G[dOrn]WTINGG; ester 9-C) | 16 µg/mL (≈ 10.6 µM) | 64 µg/mL (≈ 42.5 µM) | 16 µg/mL (≈ 10.6 µM) | 16 µg/mL (≈ 10.6 µM) | 
2 | CCCC(=O)N[C@H](CO)C(=O)N[C@H](Cc1ccc(O)cc1)C(=O)N[C@H](Cc1c[nH]c2ccccc12)C(=O)N[C@H](CCCN)C(=O)N[C@@H](CCCN)C(=O)NCC(=O)N[C@H](CCCN)C(=O)N[C@@H](Cc1c[nH]c2ccccc12)C(=O)N[C@@H]1C(=O)N[C@@H]([C@@H](C)CC)C(=O)N[C@@H](CC(N)=O)C(=O)NCC(=O)NCC(=O)O[C@@H]1C [Compound C4] (Butyryl-[dS][dY][dW][dOrn][Orn]G[dOrn]WTINGG; ester 9-C) | 8 µg/mL (≈ 5.21 µM) | 4 µg/mL (≈ 2.61 µM) | 8 µg/mL (≈ 5.21 µM) | 8 µg/mL (≈ 5.21 µM) | 
3 | CCCCCC(=O)N[C@H](CO)C(=O)N[C@H](Cc1ccc(O)cc1)C(=O)N[C@H](Cc1c[nH]c2ccccc12)C(=O)N[C@H](CCCN)C(=O)N[C@@H](CCCN)C(=O)NCC(=O)N[C@H](CCCN)C(=O)N[C@@H](Cc1c[nH]c2ccccc12)C(=O)N[C@@H]1C(=O)N[C@@H]([C@@H](C)CC)C(=O)N[C@@H](CC(N)=O)C(=O)NCC(=O)NCC(=O)O[C@@H]1C [Compound C6] (Hexanoyl-[dS][dY][dW][dOrn][Orn]G[dOrn]WTINGG; ester 9-C) | 2 µg/mL (≈ 1.28 µM) | 1 µg/mL (≈ 0.64 µM) | 1 to 2 µg/mL | 1 to 2 µg/mL | 
4 | CCCCCCCC(=O)N[C@H](CO)C(=O)N[C@H](Cc1ccc(O)cc1)C(=O)N[C@H](Cc1c[nH]c2ccccc12)C(=O)N[C@H](CCCN)C(=O)N[C@@H](CCCN)C(=O)NCC(=O)N[C@H](CCCN)C(=O)N[C@@H](Cc1c[nH]c2ccccc12)C(=O)N[C@@H]1C(=O)N[C@@H]([C@@H](C)CC)C(=O)N[C@@H](CC(N)=O)C(=O)NCC(=O)NCC(=O)O[C@@H]1C [Compound C8] (Octanoyl-[dS][dY][dW][dOrn][Orn]G[dOrn]WTINGG; ester 9-C) | 0.5 to 1 µg/mL | 0.5 to 1 µg/mL | 0.5 to 1 µg/mL | 1 µg/mL (≈ 0.629 µM) | 
5 | CCCCCCCCCC(=O)N[C@H](CO)C(=O)N[C@H](Cc1ccc(O)cc1)C(=O)N[C@H](Cc1c[nH]c2ccccc12)C(=O)N[C@H](CCCN)C(=O)N[C@@H](CCCN)C(=O)NCC(=O)N[C@H](CCCN)C(=O)N[C@@H](Cc1c[nH]c2ccccc12)C(=O)N[C@@H]1C(=O)N[C@@H]([C@@H](C)CC)C(=O)N[C@@H](CC(N)=O)C(=O)NCC(=O)NCC(=O)O[C@@H]1C [Compound C10] (Decanoyl-[dS][dY][dW][dOrn][Orn]G[dOrn]WTINGG; ester 9-C) | 1 µg/mL (≈ 0.618 µM) | 1 µg/mL (≈ 0.618 µM) | 1 to 2 µg/mL | 1 to 2 µg/mL | 
6 | CCCCCCCCCCCC(=O)N[C@H](CO)C(=O)N[C@H](Cc1ccc(O)cc1)C(=O)N[C@H](Cc1c[nH]c2ccccc12)C(=O)N[C@H](CCCN)C(=O)N[C@@H](CCCN)C(=O)NCC(=O)N[C@H](CCCN)C(=O)N[C@@H](Cc1c[nH]c2ccccc12)C(=O)N[C@@H]1C(=O)N[C@@H]([C@@H](C)CC)C(=O)N[C@@H](CC(N)=O)C(=O)NCC(=O)NCC(=O)O[C@@H]1C [Compound C12] (Lauroyl-[dS][dY][dW][dOrn][Orn]G[dOrn]WTINGG; ester 9-C) | 2 to 4 µg/mL | 2 µg/mL (≈ 1.21 µM) | 4 µg/mL (≈ 2.43 µM) | 4 µg/mL (≈ 2.43 µM) | 
7 | CCCCCCCCCCCCCC(=O)N[C@H](CO)C(=O)N[C@H](Cc1ccc(O)cc1)C(=O)N[C@H](Cc1c[nH]c2ccccc12)C(=O)N[C@H](CCCN)C(=O)N[C@@H](CCCN)C(=O)NCC(=O)N[C@H](CCCN)C(=O)N[C@@H](Cc1c[nH]c2ccccc12)C(=O)N[C@@H]1C(=O)N[C@@H]([C@@H](C)CC)C(=O)N[C@@H](CC(N)=O)C(=O)NCC(=O)NCC(=O)O[C@@H]1C [Compound C14] (Myristoyl-[dS][dY][dW][dOrn][Orn]G[dOrn]WTINGG; ester 9-C) | 8 µg/mL (≈ 4.78 µM) | 4 µg/mL (≈ 2.39 µM) | 8 µg/mL (≈ 4.78 µM) | 8 µg/mL (≈ 4.78 µM) | 
8 | CCCCCCCCCCCCCCCC(=O)N[C@H](CO)C(=O)N[C@H](Cc1ccc(O)cc1)C(=O)N[C@H](Cc1c[nH]c2ccccc12)C(=O)N[C@H](CCCN)C(=O)N[C@@H](CCCN)C(=O)NCC(=O)N[C@H](CCCN)C(=O)N[C@@H](Cc1c[nH]c2ccccc12)C(=O)N[C@@H]1C(=O)N[C@@H]([C@@H](C)CC)C(=O)N[C@@H](CC(N)=O)C(=O)NCC(=O)NCC(=O)O[C@@H]1C [Compound C16] (Palmitoyl-[dS][dY][dW][dOrn][Orn]G[dOrn]WTINGG; ester 9-C) | 32 µg/mL (≈ 18.8 µM) | 4 to 8 µg/mL | 64 µg/mL (≈ 37.6 µM) | 64 µg/mL (≈ 37.6 µM) | 
9 | CCC(C)CCC(=O)N[C@H](CC(N)=O)C(=O)N[C@H](Cc1ccc(O)cc1)C(=O)N[C@H](Cc1c[nH]c2ccccc12)C(=O)N[C@H](CCCN)C(=O)N[C@@H](CCCN)C(=O)NCC(=O)N[C@H](CCCN)C(=O)N[C@@H](Cc1c[nH]c2ccccc12)C(=O)N[C@@H](CCC(N)=O)C(=O)N[C@H](C(=O)NCC(N)=O)[C@@H](C)CC (stereo partly drawn) [Und(9-Gln)-NH2] ({Hexanoyl(4ξ-Me)}-[dN][dY][dW][dOrn][Orn]G[dOrn]WQIG-NH2) |  |  |  |  | 0.78 µg/mL
10 | CCC(C)CCC(=O)N[C@H](CC(N)=O)C(=O)N[C@H](Cc1ccc(O)cc1)C(=O)N[C@H](Cc1c[nH]c2ccccc12)C(=O)N[C@H](CCCN)C(=O)N[C@@H](CCCN)C(=O)NCC(=O)N[C@H](CCCN)C(=O)N[C@@H](Cc1c[nH]c2ccccc12)C(=O)N[C@@H](CC(C)C)C(=O)N[C@H](C(=O)NCC(N)=O)[C@@H](C)CC (stereo partly drawn) [Und(9-Leu)-NH2] ({Hexanoyl(4ξ-Me)}-[dN][dY][dW][dOrn][Orn]G[dOrn]WLIG-NH2) |  |  |  |  | 0.78 µg/mL
11 | CCC(C)CCC(=O)N[C@H](CC(N)=O)C(=O)N[C@H](Cc1ccc(O)cc1)C(=O)N[C@H](Cc1c[nH]c2ccccc12)C(=O)N[C@H](CCCN)C(=O)N[C@@H](CCCN)C(=O)NCC(=O)N[C@H](CCCN)C(=O)N[C@@H](Cc1c[nH]c2ccccc12)C(=O)N[C@@H](Cc1ccccc1)C(=O)N[C@H](C(=O)NCC(N)=O)[C@@H](C)CC (stereo partly drawn) [Und(9-Phe)-NH2] ({Hexanoyl(4ξ-Me)}-[dN][dY][dW][dOrn][Orn]G[dOrn]WFIG-NH2) |  |  |  |  | <0.20 µg/mL
12 | CCC(C)CCC(=O)N[C@H](CC(N)=O)C(=O)N[C@H](Cc1ccc(O)cc1)C(=O)N[C@H](Cc1c[nH]c2ccccc12)C(=O)N[C@H](CCCN)C(=O)N[C@@H](CCCN)C(=O)NCC(=O)N[C@H](CCCN)C(=O)N[C@@H](Cc1c[nH]c2ccccc12)C(=O)N[C@@H](Cc1c[nH]c2ccccc12)C(=O)N[C@H](C(=O)NCC(N)=O)[C@@H](C)CC (stereo partly drawn) [Und(9-Trp)-NH2] ({Hexanoyl(4ξ-Me)}-[dN][dY][dW][dOrn][Orn]G[dOrn]WWIG-NH2) |  |  |  |  | 0.78 µg/mL
